Test system: 439559-082-T-J2-PDC spheroids viability
Assay: Anticancer human tumor 439559-082-T-J2-PDC patient-derived colon adenocarcinoma cell line growth inhibition [GQUAD]
Details: for IC50: curve of first compound; for viability, T/C: stronger effect = lower value
Excerpt: DNA G-quadruplex Stabilizer Agents in Combinations in Complex Spheroids
A high-throughput screen of multi-cell type tumor spheroids was designed to identify active combinations of DNA G-quadruplex stabilizer agents and targeted small molecules. Complex spheroids include a stromal component modeled by human endothelial cells (HUVEC) and fibroblasts modeled by human mesenchymal stem cells (MSCs). The concentration ranges selected for each drug and investigational agent were based upon clinically achievable concentrations if the clinical Cmax of the agent was known.
Compounds. The drugs and investigational agents: pidnarulex (CX-5461; NSC782164), APTO-253 (NSC789042), BRACO-19 (NSC847499), peposertib (NSC802822), ceralasertib (NSC780249), elimusertib (NSC800525), camonsertib (NSC841442), AZD-1390 (NSC803789), olaparib (NSC753686), talazoparib (NSC767125), ART-558 (NSC835418), sotorasib (NSC818433), MRTX-1133 (NSC836407), SN-38 (NSC673596), topotecan (NSC609699), etoposide (NSC141540), doxorubicin (NSC123127), gemcitabine (NSC613327), 5-fluorouracil (NSC19893), paclitaxel (NSC125973), vemurafenib (NSC761431), panobinostat (NSC761190), R-306465 (JNJ-16241199; NSC773264), adavosertib (NSC754352), TP-3654 (NSC805149), carboplatin (NSC241240), KSQ-4279 (NSC840948), and staurosporine (NSC755774) were obtained from the National Cancer Institute (NCI) Developmental Therapeutics Program Chemical Repository (34). The FDA-approved anticancer drug set is available from the NCI Developmental Therapeutics Program. […] The stock solutions were prepared in dimethyl sulfoxide (DMSO, Sigma-Aldrich, St. Louis, MO, cat. D2650) at 800-fold the tested concentration and stored at -70 degrees C prior to their use. All drugs and investigational agents were tested over a range starting from a high concentration at or near the clinical Cmax and decreasing in half-log increments. If the clinical Cmax for an agent had not been determined, the highest concentration tested was 10 microM.
2.3 Cell Culture. All cells were maintained in an incubator at 37 degrees C and 5% CO2 with 95% humidity. The PDC lines were cultured according to standard operating procedures established by the NCI PDMR. All PDCs were thawed and cultured in Matrigel-coated flasks prepared with a working solution of 1X Ham's F-12 nutrient mix, without supplementation (Invitrogen, cat. 11765054), 100 U/mL penicillin-streptomycin (Invitrogen, cat. 15140122), and 2.5% Matrigel (Corning Inc., cat. 354248) for the first three passages. The 857933-349-R-J2-PDC line was cultured in 6C/Colon 1B media, which includes advanced DMEM/F-12 (Thermo Fisher Scientific, cat. 12634028), 10 mM HEPES (Thermo Fisher Scientific, cat. 15630080), 1X GlutaMAX supplement (Thermo Fisher Scientific, cat. 35050061), 0.1 mg/mL primocin (InvivoGen, cat. ant-pm-2), 10% defined fetal bovine serum, heat inactivated (HyClone Laboratories Inc., cat. SH30070.03HI), 50% L-WRN conditioned media (ATCC, cat. CRL-3276), 1.25 mM N-Acetyl-L-cysteine (Sigma-Aldrich, cat. A9165), 10 mM nicotinamide (Sigma-Aldrich, cat. N0636), 1X B-27 supplement (Thermo Fisher Scientific, cat. 17504044), 1X N-2 supplement (Thermo Fisher Scientific, cat. 17502048), 10 microM Y-27632 dihydrochloride (Tocris Bioscience, cat. 1254), and 50 ng/mL human EGF recombinant protein (Thermo Fisher Scientific, cat. PHG0311). The 485176-168-R4-J1-PDC line was cultured in Panc media, which includes all 6C/Colon 1B media components plus 100 ng/mL human FGF-10 (Thermo Fisher Scientific, cat. 100-26), 500 nM SB-431542 (Selleckchem, cat. S1067), and gastrin (Tocris, cat. 3006).
[…]

[1] = second compound 0.0316 µM, first compound 0.0316 µM
[2] = second compound 0.0316 µM, first compound 0.1 µM
[3] = second compound 0.0316 µM, first compound 0.316 µM
[4] = second compound 0.0316 µM, first compound 1 µM
[5] = second compound 0.0316 µM, first compound 3.16 µM
[6] = second compound 0.0316 µM, first compound 10 µM
[7] = second compound 0.1 µM, first compound 0.0316 µM
[8] = second compound 0.1 µM, first compound 0.1 µM
[9] = second compound 0.1 µM, first compound 0.316 µM
[10] = second compound 0.1 µM, first compound 1 µM
[11] = second compound 0.1 µM, first compound 3.16 µM
[12] = second compound 0.1 µM, first compound 10 µM
[13] = second compound 0.316 µM, first compound 0.0316 µM
[14] = second compound 0.316 µM, first compound 0.1 µM
[15] = second compound 0.316 µM, first compound 0.316 µM
[16] = second compound 0.316 µM, first compound 1 µM
[17] = second compound 0.316 µM, first compound 3.16 µM
[18] = second compound 0.316 µM, first compound 10 µM
[19] = second compound 1 µM, first compound 0.0316 µM
[20] = second compound 1 µM, first compound 0.1 µM
[21] = second compound 1 µM, first compound 0.316 µM
[22] = second compound 1 µM, first compound 1 µM
[23] = second compound 1 µM, first compound 3.16 µM
[24] = second compound 1 µM, first compound 10 µM
[25] = second compound 3.16 µM, first compound 0.0316 µM
[26] = second compound 3.16 µM, first compound 0.1 µM
[27] = second compound 3.16 µM, first compound 0.316 µM
[28] = second compound 3.16 µM, first compound 1 µM
[29] = second compound 3.16 µM, first compound 3.16 µM
[30] = second compound 3.16 µM, first compound 10 µM
[31] = second compound 10 µM, first compound 0.0316 µM
[32] = second compound 10 µM, first compound 0.1 µM
[33] = second compound 10 µM, first compound 0.316 µM
[34] = second compound 10 µM, first compound 1 µM
[35] = second compound 10 µM, first compound 3.16 µM
[36] = second compound 10 µM, first compound 10 µM
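Note: spheroids exposed to the agents for 7 days before readout.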
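Throughout, for viability, T/C: percent of luminescence signal in DMSO vehicle wells taken as 100% viability.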

## COc1ccc([C@@H](O)c2cc(-c3ncnc4cc(N5CCOCC5)ccc34)c(F)cc2Cl)nn1 + CN(C)c1ccc(Nc2c3ccc(NC(=O)CCN4CCCC4)cc3nc3cc(NC(=O)CCN4CCCC4)ccc23)cc1
Second compound 0.0316 µM
  IC50: > 10 µM
Second compound 0.1 µM
  IC50: > 10 µM
Second compound 0.316 µM
  IC50: > 10 µM
Second compound 1 µM
  IC50: > 10 µM
Second compound 3.16 µM
  IC50: > 10 µM
Second compound 10 µM
  IC50: > 10 µM
[1]
  viability, T/C: 89.5%
[2]
  viability, T/C: 98.3%
[3]
  viability, T/C: 89.1%
[4]
  viability, T/C: 99.7%
[5]
  viability, T/C: 79.5%
[6]
  viability, T/C: 83.8%
[7]
  viability, T/C: 103%
[8]
  viability, T/C: 101%
[9]
  viability, T/C: 93.8%
[10]
  viability, T/C: 96.1%
[11]
  viability, T/C: 88.6%
[12]
  viability, T/C: 76.5%
[13]
  viability, T/C: 95.7%
[14]
  viability, T/C: 92.8%
[15]
  viability, T/C: 89.6%
[16]
  viability, T/C: 79.8%
[17]
  viability, T/C: 84%
[18]
  viability, T/C: 86.7%
[19]
  viability, T/C: 104%
[20]
  viability, T/C: 89.1%
[21]
  viability, T/C: 95.7%
[22]
  viability, T/C: 91.2%
[23]
  viability, T/C: 86%
[24]
  viability, T/C: 76.4%
[25]
  viability, T/C: 94.9%
[26]
  viability, T/C: 108%
[27]
  viability, T/C: 92.6%
[28]
  viability, T/C: 81.1%
[29]
  viability, T/C: 76%
[30]
  viability, T/C: 79.1%
[31]
  viability, T/C: 92.2%
[32]
  viability, T/C: 77%
[33]
  viability, T/C: 93.7%
[34]
  viability, T/C: 71.9%
[35]
  viability, T/C: 86.4%
[36]
  viability, T/C: 73.4%

## O=C(c1cc(Cc2n[nH]c(=O)c3ccccc23)ccc1F)N1CCN(C(=O)C2CC2)CC1 + CN(C)c1ccc(Nc2c3ccc(NC(=O)CCN4CCCC4)cc3nc3cc(NC(=O)CCN4CCCC4)ccc23)cc1
Second compound 0.0316 µM
  IC50: > 10 µM
Second compound 0.1 µM
  IC50: > 10 µM
Second compound 0.316 µM
  IC50: > 10 µM
Second compound 1 µM
  IC50: > 10 µM
Second compound 3.16 µM
  IC50: > 10 µM
Second compound 10 µM
  IC50: > 10 µM
[1]
  viability, T/C: 101%
[2]
  viability, T/C: 92.1%
[3]
  viability, T/C: 102%
[4]
  viability, T/C: 99.6%
[5]
  viability, T/C: 94.4%
[6]
  viability, T/C: 95.5%
[7]
  viability, T/C: 101%
[8]
  viability, T/C: 96.6%
[9]
  viability, T/C: 99.2%
[10]
  viability, T/C: 97.9%
[11]
  viability, T/C: 101%
[12]
  viability, T/C: 87.3%
[13]
  viability, T/C: 96.2%
[14]
  viability, T/C: 104%
[15]
  viability, T/C: 98.5%
[16]
  viability, T/C: 96.2%
[17]
  viability, T/C: 100%
[18]
  viability, T/C: 90.8%
[19]
  viability, T/C: 98.3%
[20]
  viability, T/C: 95.1%
[21]
  viability, T/C: 95.3%
[22]
  viability, T/C: 97.6%
[23]
  viability, T/C: 98.5%
[24]
  viability, T/C: 107%
[25]
  viability, T/C: 103%
[26]
  viability, T/C: 99.7%
[27]
  viability, T/C: 94.9%
[28]
  viability, T/C: 101%
[29]
  viability, T/C: 99.1%
[30]
  viability, T/C: 99.7%
[31]
  viability, T/C: 105%
[32]
  viability, T/C: 96.8%
[33]
  viability, T/C: 104%
[34]
  viability, T/C: 93%
[35]
  viability, T/C: 108%
[36]
  viability, T/C: 94.9%

— PubChem BioAssay AID2060510 (Molecular Pharmacology Branch, DTP, NCI, 2025)
